Structures are written as SMILES.

For the experiment, the system named is IL-12 production in human PBMC or THP-1 cells. Description: In vitro inhibition of IL-12 production in stimulated human PBMC or THP-1 cells (ELISA). Format: cell-based. To be noted: representative in vitro IC50 data. The text has this:
The biological activities of a heterocyclic compound can be evaluated by a number of cell-based assays. One of such assays can be conducted using cells from human peripheral blood mononuclear cells (PBMC) or human monocytic cell line (THP-1). The cells are stimulated with a combination of human interferon-γ (IFNγ) and lipopolysaccharide or a combination of IFNγ and Staphylococcus aureus Cowan I in the presence of a test compound. The level of inhibition of IL-12 production can be measured by determining the amount of p70 by using a sandwich ELISA assay with anti-human IL-12 antibodies. IC50 of the test compound can then be determined. Specifically, PBMC or THP-1 cells are incubated with the test compound. Cell viability was assessed using the bioreduction of MTS [3-(4,5-dimethylthiazol-2-yl)-5-(3-carboxymethoxyphenyl)-2-(4-sulfophenyl)-2H-tetrazolium] (Promega, Madison, Wis.).
Reagents. Staphylococcus aureus Cowan I (SAC) was obtained from Calbiochem (La Jolla, Calif.), and lipopolysaccharide (LPS, Serratia marscencens) was obtained from Sigma (St. Louis, Mo.). Human and mouse recombinant IFNγ were purchased from Boehringer Mannheim (Mannheim, Germany) and Pharmingen (San Diego, Calif.), respectively.
Human In Vitro Assay. Human PBMC were isolated by centrifugation using Ficoll-Paque (Pharmacia Biotech, Uppsala, Sweden) and prepared in RPMI medium supplemented with 10% fetal calf serum (FCS), 100 U/mL penicillin, and 100 μg/mL streptomycin. PBMC were plated in wells of a 96-well plate at a concentration of 5×10^5 cells/well, and primed by adding IFNγ (30 U/mL) for 22 h and stimulated by adding LPS (1 μg/mL), or by adding IFNγ (100 U/mL) and then stimulated by adding SAC (0.01%). A test pyrimidine compound was dissolved in DMSO, and added to wells of the 96-well plate. The final DMSO concentration was adjusted to 0.25% in all cultures, including the compound-free control. Human THP-1 cells were plated in wells, primed by adding IFNγ (100 U/mL) for 22 h and stimulated by adding SAC (0.025%) in the presence of different concentrations of the pyrimidine compound. Cell-free supernatants were taken 18 h later for measurement of cytokines. Cell viability was assessed using the bioreduction of MTS. Cell survival was estimated by determining the ratio of the absorbance in compound-treated groups versus compound-free control.
The supernatant was assayed for the amount of IL-12p40, IL-12p70, or IL-10 by using a sandwich ELISA with anti-human antibodies, i.e., a Human IL-12 p40 ELISA kit from R&D Systems (Berkeley, Calif.), and a Human IL-12 p70 or IL-10 ELISA kit from Endogen (Cambridge, Mass.). Assays were based on the manufacturer's instructions.
The biological activities of pyrimidine compounds were tested on human PBMC or THP-1 cells. Unexpectedly, some of the test compounds have IC50 values as low as <1 nM.
Turning to `CCNC(=O)OCCCc1nc(N/N=C/c2cccc(C)c2)cc(N2CCOCC2)n1` [Compound 8, Ethyl-carbamic acid 3-{4-[N′-(3-methyl-benzylidene)-hydrazino]-6-morpholin-4-yl-pyrimidin-2-yl}-propyl ester], the IC50 is less than 25 nM.

Take `Cc1cccc(/C=N/Nc2cc(N3CCOCC3)nc(CC(C)(C)OC(=O)Nc3ccc(C(F)(F)F)cc3)n2)c1` [Compound 30, (4-Trifluoromethyl-phenyl)-carbamic acid 1,1-dimethyl-2-{4-[N′-(3-methyl-benzylidene)-hydrazino]-6-morpholin-4-yl-pyrimidin-2-yl}-ethyl ester]: the IC50 was less than 25 nM.

For the molecule `Cc1cccc(/C=N/Nc2cc(N3CCOCC3)nc(OCC(C)(C)OC(=O)Nc3cccc(C(F)(F)F)c3)n2)c1` [Compound 28, (3-Trifluoromethyl-phenyl)-carbamic acid 1,1-dimethyl-2-{4-[N′-(3-methyl-benzylidene)-hydrazino]-6-morpholin-4-yl-pyrimidin-2-yloxy}-ethyl ester], the IC50 was less than 25 nM. `Cc1ccc(NC(=O)OC(C)(C)Cc2nc(N/N=C/c3cccc(C)c3)cc(N3CCOCC3)n2)cc1` [Compound 16, p-Tolyl-carbamic acid 1,1-dimethyl-2-{4-[N′-(3-methyl-benzylidene)-hydrazino]-6-morpholin-4-yl-pyrimidin-2-yl}-ethyl ester]: the IC50 is less than 25 nM. Regarding `Cc1cccc(/C=N/Nc2cc(N3CCOCC3)nc(CCOC(=O)Nc3ccccc3)n2)c1` [Compound 24, Phenyl-carbamic acid 2-{4-[N′-(3-methyl-benzylidene)-hydrazino]-6-morpholin-4-yl-pyrimidin-2-yl}-ethyl ester], the IC50 was less than 25 nM. As to `Cc1cccc(/C=N/N(C)c2cc(N3CCOCC3)nc(CCCOC(=O)Nc3cccc(C(F)(F)F)c3)n2)c1` [Compound 4, (3-Trifluoromethyl-phenyl)-carbamic acid 3-{4-[N-methyl-N′-(3-methyl-benzylidene)-hydrazino]-6-morpholin-4-yl-pyrimidin-2-yl}-propyl ester], the IC50 was more than 50 nM. For the molecule `Cc1ccc(NC(=O)OCCOc2nc(N/N=C/c3cccc(C)c3)cc(N3CCOCC3)n2)cc1` [Compound 19, p-Tolyl-carbamic acid 2-{4-[N′-(3-methyl-benzylidene)-hydrazino]-6-morpholin-4-yl-pyrimidin-2-yloxy}-ethyl ester], the IC50 was less than 25 nM.

`Cc1cccc(/C=N/Nc2cc(N3CCOCC3)nc(CCCOC(=O)Nc3ccc(Oc4ccccc4)cc3)n2)c1` [Compound 11, (4-Phenoxy-phenyl)-carbamic acid 3-{4-[N′-(3-methyl-benzylidene)-hydrazino]-6-morpholin-4-yl-pyrimidin-2-yl}-propyl ester]: the IC50 was in the range of 25 to 50 nM.

Turning to `Cc1cccc(/C=N/Nc2cc(N3CCOCC3)nc(CCC(C)(C)OC(=O)Nc3cccc(C)c3)n2)c1` [Compound 26, m-Tolyl-carbamic acid 1,1-dimethyl-3-{4-[N′-(3-methyl-benzylidene)-hydrazino]-6-morpholin-4-yl-pyrimidin-2-yl}-propyl ester], the 50% inhibitory concentration (IC50) lay in the range of 25 to 50 nM. For the molecule `Cc1cccc(/C=N/Nc2cc(N3CCOCC3)nc(CCC(C)(C)OC(=O)Nc3cccc(C(F)(F)F)c3)n2)c1` [Compound 27, (3-Trifluoromethyl-phenyl)-carbamic acid 1,1-dimethyl-3-{4-[N′-(3-methyl-benzylidene)-hydrazino]-6-morpholin-4-yl-pyrimidin-2-yl}-propyl ester], the IC50 was more than 50 nM.

For the molecule `Cc1cccc(/C=N/Nc2cc(N3CCOCC3)nc(CCCOC(=O)Nc3cccc4ccccc34)n2)c1` [Compound 10, Naphthalen-1-yl-carbamic acid 3-{4-[N′-(3-methyl-benzylidene)-hydrazino]-6-morpholin-4-yl-pyrimidin-2-yl}-propyl ester], the IC50 is more than 50 nM. As for `Cc1cccc(/C=N/Nc2cc(N3CCOCC3)nc(CCOC(=O)Nc3ccc(Cl)cc3)n2)c1` [Compound 21, (4-Chloro-phenyl)-carbamic acid 2-{4-[N′-(3-methyl-benzylidene)-hydrazino]-6-morpholin-4-yl-pyrimidin-2-yl}-ethyl ester], the figure is 25 to 50 nM. As for `COC(=O)c1ccc(NC(=O)OCCc2nc(N/N=C/c3cccc(C)c3)cc(N3CCOCC3)n2)cc1` [Compound 23, 4-(2-{4-[N′-(3-Methyl-benzylidene)-hydrazino]-6-morpholin-4-yl-pyrimidin-2-yl}-ethoxycarbonylamino)-benzoic acid methyl ester], the IC50 was less than 25 nM.

On to `Cc1ccc(NC(=O)OCCCc2nc(N3CCOCC3)cc(N(C)/N=C/c3cccc(C)c3)n2)cc1` [Compound 14, p-Tolyl-carbamic acid 3-{4-[N-methyl-N′-(3-methyl-benzylidene)-hydrazino]-6-morpholin-4-yl-pyrimidin-2-yl}-propyl ester], for which the half-maximal inhibitory concentration (IC50) was less than 25 nM. In the case of `Cc1ccc(NC(=O)OCCCc2nc(N/N=C/c3cccc(C)c3)cc(N3CCOCC3)n2)cc1` [Compound 3, p-Tolyl-carbamic acid 3-{4-[N′-(3-methyl-benzylidene)-hydrazino]-6-morpholin-4-yl-pyrimidin-2-yl}-propyl ester], the concentration for half-maximal inhibition (IC50) is less than 25 nM.

As for `Cc1cccc(/C=N/Nc2cc(N3CCOCC3)nc(CCOC(=O)Nc3ccc([N+](=O)[O-])cc3)n2)c1` [Compound 15, (4-Nitro-phenyl)-carbamic acid 2-{4-[N′-(3-methyl-benzylidene)-hydrazino]-6-morpholin-4-yl-pyrimidin-2-yl}-ethyl ester], the concentration for half-maximal inhibition (IC50) is less than 25 nM. As for `Cc1ccc(NC(=O)OCCc2nc(N/N=C/c3cccc(C)c3)cc(N3CCOCC3)n2)cc1` [Compound 13, p-Tolyl-carbamic acid 2-{4-[N′-(3-methyl-benzylidene)-hydrazino]-6-morpholin-4-yl-pyrimidin-2-yl}-ethyl ester], the IC50 is less than 25 nM. For `Cc1cccc(/C=N/Nc2cc(N3CCOCC3)nc(CCOC(=O)Nc3ccc(C(C)C)cc3)n2)c1` [Compound 20, (4-Isopropyl-phenyl)-carbamic acid 2-{4-[N′-(3-methyl-benzylidene)-hydrazino]-6-morpholin-4-yl-pyrimidin-2-yl}-ethyl ester], the IC50 was more than 50 nM.

Regarding `COc1cccc(NC(=O)OCCCc2nc(N/N=C/c3cccc(C)c3)cc(N3CCOCC3)n2)c1` [Compound 1, (3-Methoxy-phenyl)-carbamic acid 3-{4-[N′-(3-methyl-benzylidene)-hydrazino]-6-morpholin-4-yl-pyrimidin-2-yl}-propyl ester], the IC50 lay in the range of 25 to 50 nM.

On to `Cc1cccc(/C=N/Nc2cc(N3CCOCC3)nc(CC(C)(C)OC(=O)Nc3cccc(C(F)(F)F)c3)n2)c1` [Compound 29, (3-Trifluoromethyl-phenyl)-carbamic acid 1,1-dimethyl-2-{4-[N′-(3-methyl-benzylidene)-hydrazino]-6-morpholin-4-yl-pyrimidin-2-yl}-ethyl ester], for which the IC50 was more than 50 nM. As for `Cc1cccc(/C=N/Nc2cc(N3CCOCC3)nc(CCNS(=O)(=O)N(C)C)n2)c1` [Compound 54, 1,1-Dimethyl-3-(2-{4-[N′-(3-methyl-benzylidene)-hydrazino]-6-morpholin-4-yl-pyrimidin-2-yl}-ethyl)-sulfamide], the IC50 is less than 25 nM.

As to `Cc1cccc(/C=N/Nc2cc(N3CCOCC3)nc(CCOC(=O)Nc3ccc(C#N)cc3)n2)c1` [Compound 22, (4-Cyano-phenyl)-carbamic acid 2-{4-[N′-(3-methyl-benzylidene)-hydrazino]-6-morpholin-4-yl-pyrimidin-2-yl}-ethyl ester], the IC50 is less than 25 nM. Regarding `Cc1cccc(/C=N/Nc2cc(N3CCOCC3)nc(CCSc3nnc(-c4ccncc4)[nH]3)n2)c1` [Compound 25, N-(3-Methyl-benzylidene)-N′-{6-morpholin-4-yl-2-[2-(5-pyridin-4-yl-4H-[1,2,4]triazol-3-ylsulfanyl)-ethyl]-pyrimidin-4-yl}-hydrazine], the IC50 is less than 25 nM. With `CCNC(=O)OCCc1nc(N/N=C/c2cccc(C)c2)cc(N2CCOCC2)n1` [Compound 17, Ethyl-carbamic acid 2-{4-[N′-(3-methyl-benzylidene)-hydrazino]-6-morpholin-4-yl-pyrimidin-2-yl}-ethyl ester], the IC50 is less than 25 nM.

Values taken from US7872005B2, “2-substituted heteroaryl compounds” (Synta Pharmaceuticals Corporation, priority 2004, dated 2011).
